In US20170234889A1, “hGH Determination for Use to Guide Prevention of a Major Adverse Cardiac Event or a Cardiovascular Disease in a Subject” (Sphingotec GmbH, priority 2014, published 2017):

Key:
Format in all cases: in vivo, human
[1] = test system: patients with acute myocardial infarction; assay: AMI cohort: Cox regression and Kaplan-Meier analysis for MACE at 2 years post-AMI
Description: We studied 953 STEMI and NSTEMI patients admitted to University Hospitals of Leicester NHS trust between August 2004 and April 2007. This observational cohort study complied with the Declaration of Helsinki and was approved by the local ethics committee; written informed consent was obtained from patients. […] Patients with known malignancy, renal replacement therapy or surgery in the previous month were excluded. Estimated glomerular filtration rate (eGFR) was calculated from the simplified Modification of Diet in Renal Disease formula (Smilde T D, van Veldhuisen D J, Navis G, Voors A A, Hillege H L. Drawbacks and prognostic value of formulas estimating renal function in patients with chronic heart failure and systolic dysfunction. Circulation 2006; 114:1572-80). All patients received standard medical treatment and revascularisation was at the discretion of the attending physician.
Plasma samples: Blood samples (anticoagulated with EDTA and aprotinin) were drawn after 15 minutes bed rest, immediately after diagnosis and within 36 h of symptom onset. Plasma was stored at −80° C. until assayed in a single batch for blinded determination of plasma hGH.
During follow-up over 2 years, there were 281 MACE, the primary composite endpoint (comprising 117 deaths, 71 HF hospitalisations and 93 re-AMIs). […]

[2] = test system: subjects with plaque in the right carotid artery but no symptoms of carotid artery disease; assay: BCAPS: fasting plasma hs-GH under treatment; conditions: for Growth Hormone - females, geometric mean / Growth Hormone - males, geometric mean: 12 months of treatment, fasting plasma
Excerpt: The β-Blocker Cholesterol-Lowering Asymptomatic Plaque Study (BCAPS) was a randomized, double blind, placebo-controlled, single-center clinical trial that took place between 1994 and 1999. A detailed description of BCAPS can be found in the original paper (Hedblad et al. 2001. Circulation 103: 1721-1726), following here is a brief summary. The original study population consisted of 361 men and 432 women (total n=793) 49 to 70 years of age recruited from MDC-CC. Subjects included in BCAPS had plaque in the right carotid artery but no symptoms of carotid artery disease. Exclusion criteria were: myocardial infarction, angina pectoris or stroke within the previous 3 months; previous surgery in the right carotid artery; regular use of β-blockers or statins; blood pressure >160 (systolic) or >95 (diastolic) mm Hg; total cholesterol >8.0 mmol/l; hyperglycemia suspected to require insulin treatment; and conditions that in the view of the investigator made the participant unsuitable for the trial. The study consisted of 4 different treatment groups and the participants were randomized to 1 of the following: placebo/placebo, metoprolol CR/XL (25 mg once daily)/placebo, fluvastatin (40 mg once daily)/placebo or metoprolol CR/XL (25 mg once daily)/fluvastatin (40 mg once daily). The treatment period was 36-months. Fasting blood samples were drawn at baseline and at 12, 24 and 36 months. HDL-C, total cholesterol and TG were measured according to standard procedures at the Department of Clinical Chemistry, University Hospital of Malmö. LDL-C levels were calculated according to the Friedewald formula. GH levels were measured in stored fasting plasma samples, which were frozen immediately to −80° C. at the different examinations. A number of the samples stored in the freezer were missing or had insufficient plasma for the analysis of hs-GH. Subjects in which either the baseline-value of GH or the 12-month value of GH was missing were excluded from further analysis. After this adjustment the study consisted of 472 individuals. All samples were measured using the hs-hGH immunoassay as described above. In the analyses where treatment groups are compared, the groups are either the 4 randomization groups or they are divided in to 2 groups which are fluvastatin vs non-fluvastatin (i.e placebo) or metoprolol vs non-metoprolol. Since fasting hs-GH is known to differ between men and women all models were performed separate for men and women as well as combined. All models were adjusted for age, sex (if not already gender separated) and the natural logarithm of the fasting level of hs-GH at baseline. To investigate if fasting hs-GH was affected by treatment with fluvastatin or metoprolol we performed multiple regression analysis with ΔGH (baseline value subtracted from 12 month value) as the dependent variable and the treatment groups as independent variables.

[3] = test system: subjects with plaque in the right carotid artery but no symptoms of carotid artery disease; assay: BCAPS: LDL-C under treatment; conditions: 12 months of treatment
Excerpt: The β-Blocker Cholesterol-Lowering Asymptomatic Plaque Study (BCAPS) was a randomized, double blind, placebo-controlled, single-center clinical trial that took place between 1994 and 1999. A detailed description of BCAPS can be found in the original paper (Hedblad et al. 2001. Circulation 103: 1721-1726), following here is a brief summary. The original study population consisted of 361 men and 432 women (total n=793) 49 to 70 years of age recruited from MDC-CC. Subjects included in BCAPS had plaque in the right carotid artery but no symptoms of carotid artery disease. […] HDL-C, total cholesterol and TG were measured according to standard procedures at the Department of Clinical Chemistry, University Hospital of Malmö. LDL-C levels were calculated according to the Friedewald formula. GH levels were measured in stored fasting plasma samples, which were frozen immediately to −80° C. at the different examinations. […] All samples were measured using the hs-hGH immunoassay as described above.

[4] = test system: subjects with plaque in the right carotid artery but no symptoms of carotid artery disease; assay: BCAPS: carotid ultrasound intima media thickness (IMT); conditions: 36 months; for IMTbulb, median: maximum IMT at the carotid bifurcation; for IMTcca, median: mean IMT in the common carotid artery
Excerpt: The β-Blocker Cholesterol-Lowering Asymptomatic Plaque Study (BCAPS) was a randomized, double blind, placebo-controlled, single-center clinical trial that took place between 1994 and 1999. A detailed description of BCAPS can be found in the original paper (Hedblad et al. 2001. Circulation 103: 1721-1726), following here is a brief summary. The original study population consisted of 361 men and 432 women (total n=793) 49 to 70 years of age recruited from MDC-CC. Subjects included in BCAPS had plaque in the right carotid artery but no symptoms of carotid artery disease. Exclusion criteria were: myocardial infarction, angina pectoris or stroke within the previous 3 months; previous surgery in the right carotid artery; regular use of β-blockers or statins; blood pressure >160 (systolic) or >95 (diastolic) mm Hg; total cholesterol >8.0 mmol/l; hyperglycemia suspected to require insulin treatment; and conditions that in the view of the investigator made the participant unsuitable for the trial. The study consisted of 4 different treatment groups and the participants were randomized to 1 of the following: placebo/placebo, metoprolol CR/XL (25 mg once daily)/placebo, fluvastatin (40 mg once daily)/placebo or metoprolol CR/XL (25 mg once daily)/fluvastatin (40 mg once daily). Carotid ultrasound was performed at baseline, 18 and 36 months (Hedblad et al. 2001. Circulation 103: 1721-1726). In brief, a predefined extent of the right carotid bifurcation was scanned for presence of plaques and the maximum IMT at the bifurcation (IMTbulb) and the mean IMT in the common carotid artery ([…]) was measured.

[5] = FEMALE, all receiving the drug vs individuals not receiving it
[6] = FEMALE, model All groups, each compared against placebo
[7] = MALE, all receiving the drug vs individuals not receiving it
[8] = MALE, model All groups, each compared against placebo
[9] = gender ALL, all receiving the drug vs individuals not receiving it
[10] = gender ALL, model All groups, each compared against placebo

| Compound | Univariable HR (95% CI) for MACE [1] | Growth Hormone - females, geometric mean [2] | Growth Hormone - males, geometric mean [2] | B, multiple linear regression of ΔGH (12 months - baseline) vs treatment group [2, 5] | B, multiple linear regression of ΔGH (12 months - baseline) vs treatment group [2, 6] | B, multiple linear regression of ΔGH (12 months - baseline) vs treatment group [2, 7] | B, multiple linear regression of ΔGH (12 months - baseline) vs treatment group [2, 8] | B, multiple linear regression of ΔGH (12 months - baseline) vs treatment group [2, 9] | B, multiple linear regression of ΔGH (12 months - baseline) vs treatment group [2, 10] | LDL-C, mean [3] | IMTbulb, median [4] | IMTcca, median [4] |
| --- | --- | --- | --- | --- | --- | --- | --- | --- | --- | --- | --- | --- |
| CC(=O)Oc1ccccc1C(=O)O [Aspirin] | 0.54 (0.41-0.72) | – | – | – | – | – | – | – | – | – | – | – |
| COCCc1ccc(OCC(O)CNC(C)C)cc1 (centres unmarked) [Metoprolol] | – | 860 pg/mL | 170 pg/mL | 0.33 | −0.06 | −0.27 | −0.26 | 0.13 | −0.11 | 4.17 mmol/L | 1.89 | 0.90 |
| CC(C)n1c(/C=C/C(O)CC(O)CC(=O)O)c(-c2ccc(F)cc2)c2ccccc21 (centres unmarked) [Fluvastatin] | – | 810 pg/mL | 160 pg/mL | 0.41 | 0.02 | −0.37 | −0.36 | 0.12 | −0.11 | 3.27 mmol/L | 2.02 | 0.87 |
